Laboratory results published in patent US20180346505A1, “MONONUCLEOTIDES HAVING A BIOREVERSIBLE DISULFIDE GROUP” (priority 2014, published 2018).

Columns and labels:
[1] = tested on: GT1b (Con1) HCV replicon; test: HCV replicon assay, wild type GT1b (Con1), luciferase based, stable format; format: cell-based, hepatitis C virus; details: Huh-7 cells
Description: (§1) The antiviral activity of the test compounds was assessed in the wild type GT1b (Con1), GT1a (H77), and GT1b/2a, GT1b/3a, GT1b/4a and GT1b/5a NS5B chimeric replicons, as well as the NS5B mutant replicons listed in Table 2a and 2b.
(§2) All the replicon assays were luciferase based in Huh-7 cells, either in stable format (GT1b and GT1a) or by transient transfection by electroporation (chimeric and mutant replicons). For a standard HCV replicon assay, stable or transiently transfected Huh-7 cells were seeded in 96-well plates (5,000 cells/well), cultured in DMEM containing 10% FBS, and incubated at 37° C., 5% CO2. On the following day, test compounds were diluted with assay media and added to the appropriate wells (final DMSO concentration in the cell culture medium was 0.5%). Assay reference positive control was included in each run to ensure assay performance. Cells were incubated at 37° C., 5% CO2 for 72 hours, at which time the cells were still sub-confluent. The antiviral activity was determined by measuring replicon reporter firefly luciferase activity using Bright Glo kit in accordance with the protocol provided by the supplier (Promega). The toxicity of the test compounds was assessed by CytoTox-1 cell proliferation assay (Promega). The half maximal effective concentration (EC50) and the half maximal toxic concentration (TC50) values were calculated using the GraphPad Prism software.

[2] = tested on: GT1b/2a NS5B chimeric replicon; test: HCV replicon assay, GT1b/2a NS5B chimeric replicon, transient transfection; format: cell-based, hepatitis C virus; details: Hepatitis C virus, Huh-7, 72 h, read-out: GT2a EC50, GT1b/2a NS5B chimeric replicon, Huh-7 cells, luciferase, 72 hours
Description: as §1
(§3) To generate HCV NS5B chimeric replicons, the GT1 b replicon was used as a backbone with the NS5B gene replaced with the NS5B gene of GT2a, GT3a, GT4a and GT5a derived from clinical isolates. These NS5B genes were cloned into the GT1b backbone and were confirmed by sequencing.
as §2

[3] = tested on: GT1b/3a NS5B chimeric replicon; test: HCV replicon assay, GT1b/3a NS5B chimeric replicon, transient transfection; format: cell-based, hepatitis C virus; details: Hepatitis C virus, Huh-7, 72 h, read-out: GT3a EC50, GT1b/3a NS5B chimeric replicon, Huh-7 cells, luciferase, 72 hours
Description: as §1, §3, §2

[4] = tested on: GT1b/4a NS5B chimeric replicon; test: HCV replicon assay, GT1b/4a NS5B chimeric replicon, transient transfection; format: cell-based, hepatitis C virus; details: Hepatitis C virus, Huh-7, 72 h, read-out: GT4a EC50, GT1b/4a NS5B chimeric replicon, Huh-7 cells, luciferase, 72 hours
Description: as §1, §3, §2

[5] = tested on: GT1b/5a NS5B chimeric replicon; test: HCV replicon assay, GT1b/5a NS5B chimeric replicon, transient transfection; format: cell-based, hepatitis C virus; details: Hepatitis C virus, Huh-7, 72 h, read-out: GT5a EC50, GT1b/5a NS5B chimeric replicon, Huh-7 cells, luciferase, 72 hours
Description: as §1, §3, §2

[6] = tested on: Huh-7 cells; test: Toxicity by CytoTox-1 cell proliferation assay (TC50) and selectivity index; format: cell-based; details: TC50 by CytoTox-1 cell proliferation assay over replicon EC50, Huh-7 cells
Description: as §2

[7] = tested on: GT1a L159F NS5B mutant replicon; test: HCV NS5B mutant replicon assay, GT1a L159F; format: cell-based; details: Hepatitis C virus, Huh-7, 72 h, read-out: GT1a L159F EC50
Description: as §1
(§4) The HCV replicon mutants were generated by site-directed mutagenesis (SDM). The SDM was performed by PCR and the PCR fragments were inserted into the backbone replicon construct. The inserted PCR fragments and the mutants were confirmed by sequencing.
as §2

[8] = tested on: GT1b S282T NS5B mutant replicon; test: HCV NS5B mutant replicon assay, GT1b S282T; format: cell-based; details: Hepatitis C virus, Huh-7, 72 h, read-out: GT1b S282T EC50
Description: as §1, §4, §2

[9] = tested on: GT1b L159F NS5B mutant replicon; test: HCV NS5B mutant replicon assay, GT1b L159F; format: cell-based; details: Hepatitis C virus, Huh-7, 72 h, read-out: GT1b L159F EC50
Description: as §1, §4, §2

[10] = tested on: GT3a L159F NS5B mutant replicon; test: HCV NS5B mutant replicon assay, GT3a L159F; format: cell-based; details: Hepatitis C virus, Huh-7, 72 h, read-out: GT3a L159F EC50
Description: as §1, §3, §4, §2

[11] = Nucleoside phosphoester stability in simulated gastric fluid; format: in vitro ADME; details: simulated gastric fluid pH 1.2, 2 μM, 37° C.
Description: Test compounds at 2 μM were incubated at 37° C. with simulated gastric fluid (SGF, 0.2% (w/v) sodium chloride in 0.7% (v/v) hydrochloric acid, deionized water, 0.3% pepsin (w/v), pH 1.2). Duplicate samples were used. Samples were removed at 0, 15, 30, 60, 120, 360 and 1440 min, immediately mixed with cold acetonitrile containing internal standard (IS), and stored at −80° C. before analysis. Omeprazole was used as a positive control. Samples were analyzed by LC/MS/MS method, and disappearance of test compound was assessed by comparison of peak area ratios of analyte/IS and reported as % test compound remaining at each time point.

[12] = Nucleoside phosphoester stability in simulated intestinal fluid; format: in vitro ADME
Description: Test compounds at 2 μM were incubated at 37° C. with simulated intestinal fluid (SIF), which contains 0.68% (w/v) monobasic potassium phosphate and 1% (w/v) pancreatin in ultra-pure water (pH 6.8). Duplicate samples were used. Samples were removed at 0, 15, 30, 60, 120, 360 and 1440 min, immediately mixed with cold acetonitrile containing an internal standard (IS), and stored at −80° C. before analysis. Chlorambucil was used as a positive control. Samples were analyzed by a LC/MS/MS method, and disappearance of test compound was assessed by comparison of peak area ratios of analyte/IS and reported as % test compound remaining at each time point.

[13] = Hepatitis C virus, GT1B, Huh-7, 72 h

Row | SMILES | EC50 [1, 13] [nM] | EC50 [2] [nM] | EC50 [3] [nM] | EC50 [4] [nM] | EC50 [5] [nM] | Selectivity Index (TC50/EC50) [6] | EC50 [7] [nM] | EC50 [8] [nM] | EC50 [9] [nM] | EC50 [10] [nM] | % Remaining ([11]; 0 min) [%] | % Remaining ([11]; 15 min) [%] | % Remaining ([11]; 30 min) [%] | % Remaining ([11]; 60 min) [%] | % Remaining ([11]; 120 min) [%] | % Remaining ([11]; 360 min) [%] | % Remaining ([11]; 1440 min) [%] | other results
1 | CC(C)OC(=O)[C@H](C)N[P@](=O)(OC[C@H]1O[C@@H](n2ccc(=O)[nH]c2=O)[C@](C)(F)[C@@H]1O)Oc1ccccc1 [sofosbuvir, reference compound] | 36 to 66 | 36 | 90 to 95 | 54 | 65 | >100 | 80 | 446 to 554 | 63 | 134 | 100.00 | 93.47 | 99.50 | 99.63 | 95.33 | 87.35 | 61.36 | % Remaining ([12]; simulated intestinal fluid pH 6.8, 2 μM, 37° C., 0 min): 100.00%; % Remaining ([12]; simulated intestinal fluid pH 6.8, 2 μM, 37° C., 15 min): 5.57%; % Remaining ([12]; simulated intestinal fluid pH 6.8, 2 μM, 37° C., 30 min): 0.00%; % Remaining ([12]; simulated intestinal fluid pH 6.8, 2 μM, 37° C., 60 min): 0.00%; % Remaining ([12]; simulated intestinal fluid pH 6.8, 2 μM, 37° C., 120 min): 0.00%; % Remaining ([12]; simulated intestinal fluid pH 6.8, 2 μM, 37° C., 360 min): 0.00%; % Remaining ([12]; simulated intestinal fluid pH 6.8, 2 μM, 37° C., 1440 min): 0.00%
2 | CC(C)(C)SSc1ccccc1CCOP1(=O)OC[C@H]2O[C@@H](n3ccc(=O)[nH]c3=O)[C@](C)(F)[C@@H]2O1 (single isomer, unassigned) [Compound 7A] | 9 | 3 | 8 | 5 | 8 | >500 | 11 | 65 | 15 to 17 | 15 | 100.00 | 95.13 | 99.01 | 92.49 | 91.52 | 91.60 | 70.36 | EC50 ([1]; 72 hours): 5 to 8 nM; % Remaining ([12]; simulated gi fluid, 0 h, 2 μM, pH 6.8): 100.00%; % Remaining ([12]; simulated gi fluid, 0.25 h, 2 μM, pH 6.8): 102.65%; % Remaining ([12]; simulated gi fluid, 0.5 h, 2 μM, pH 6.8): 104.34%; % Remaining ([12]; simulated gi fluid, 1 h, 2 μM, pH 6.8): 111.04%; % Remaining ([12]; simulated gi fluid, 2 h, 2 μM, pH 6.8): 101.89%; % Remaining ([12]; simulated gi fluid, 6 h, 2 μM, pH 6.8): 121.95%; % Remaining ([12]; simulated gi fluid, 24 h, 2 μM, pH 6.8): 51.70%
